Results published in PMC10135057, “Molecular Modification of Kex2 P1’ Site Enhances Expression and Druggability of Fungal Defensin” (Antibiotics, 2023).
Values joined by “and” are separate entries in the source; they are usually repeats but may differ in a detail not shown here. Equal entries are not always repeated.

Experiments:
S. aureus ATCC 43300 [1] = assay: microbe, parasite or virus in culture; format: cell-based, Staphylococcus aureus
Protocol: The effects of combination were evaluated by calculating the FICI. FICI ≤ 0.5 was defined as synergy, 0.5 < FICI ≤ 1 was defined as additivity, 1 < FICI ≤ 4 was defined as indifference, and FICI > 4 was defined as antagonism.

[2] = tested on: S. epidermidis ATCC 12228; assay: microbe, parasite or virus in culture; format: cell-based, Staphylococcus epidermidis; details: Staphylococcus epidermidis, ATCC12228
Protocol: (§1) The minimal inhibitory concentrations (MICs) assay was performed according to the CLSI procedures with the final peptide concentrations of 256, 128, 64, 32, 16, 8, 4, 2, 1, and 0.5 μg/mL, respectively. All tests were conducted in triplicate.

S. aureus ATCC 43300 [3] = assay: Thermal stability (MIC after heat treatment); format: physicochemical, Staphylococcus aureus; details: MIC vs S. aureus ATCC 43300, triplicate
Protocol: (§2) The tolerance of FNZ to temperature and pH was evaluated. The stability of FNZ in simulated gastric fluid, artificial intestinal fluid and mouse serum was carried out as previously described. […] All assays were conducted in triplicate.

S. aureus ATCC 43300 [4] = assay: Post-antibiotic effect (PAE); format: cell-based, Staphylococcus aureus; details: 2× MIC, 2 h exposure, 10^8 CFU/mL S. aureus ATCC 43300, 1000-fold dilution
From the text: After the exposed time, the bacteria suspension was reconstructed by dilution to 1000 times with MHB medium to remove the influence of peptides and antibiotics. Samples were taken every hour, and then coated on MHA plate after gradient dilution. The calculation formula was from previous studies.

S. aureus ATCC 43300 [5] = assay: Stability in artificial intestinal fluid (MIC after treatment); format: in vitro ADME, Staphylococcus aureus; details: 10 min, MIC vs S. aureus ATCC 43300, triplicate
Protocol: as §2

S. aureus ATCC 43300 [6] = assay: pH stability (MIC after pH treatment); format: physicochemical, Staphylococcus aureus; details: MIC vs S. aureus ATCC 43300, triplicate
Protocol: as §2

[7] = tested on: Salmonella enterica ATCC 13076; assay: Minimal inhibitory concentration (MIC); format: cell-based; details: ATCC13076, CLSI procedure, triplicate
Protocol: as §1

[8] = tested on: Pseudomonas aeruginosa CICC 20625; assay: Minimal inhibitory concentration (MIC); format: cell-based; details: CICC20625, CLSI procedure, triplicate
Protocol: as §1

[9] = tested on: Staphylococcus aureus ATCC 43300; assay: microbe, parasite or virus in culture; format: cell-based; details: Staphylococcus aureus, ATCC43300
Protocol: as §1

[10] = tested on: Escherichia coli ATCC 25922; assay: microbe, parasite or virus in culture; format: cell-based; details: Escherichia coli, ATCC25922
Protocol: as §1

S. aureus ATCC 43300 [11] = assay: Stability in mouse serum (MIC after treatment); format: in vitro ADME, Staphylococcus aureus; details: mouse serum (25%), 1–4 h; MIC vs S. aureus ATCC 43300; triplicate
Protocol: as §2

S. aureus ATCC 43300 [12] = assay: Stability in simulated gastric fluid (MIC after treatment); format: in vitro ADME, Staphylococcus aureus; details: 1 h, MIC vs S. aureus ATCC 43300, triplicate
Protocol: as §2

S. aureus ATCC 43300 [13] = assay: Salts stability (MIC after incubation with Na+ or Mg2+); format: cell-based, Staphylococcus aureus; details: for MIC: read-out: MIC after treatment
S. aureus ATCC 43300 [14] = assay: Bactericidal kinetics (time-killing curves); format: cell-based, Staphylococcus aureus; details: 2× MIC, within 2 h; S. aureus ATCC 43300, 10^6 CFU/mL
Protocol: The S. aureus ATCC 43300 in logarithmic growth stage was diluted to a final concentration of 10^6 CFU/mL. […] Samples were taken at 0, 0.5, 1, 2, 4, 6, 8, 10, 20, and 24 h, serially diluted, and visible colonies were counted on MHA plates.

S. aureus E48 = assay: microbe, parasite or virus in culture; format: cell-based, Staphylococcus aureus; details: Staphylococcus aureus, E48
Protocol: as §1

S. aureus CVCC 546 = assay: microbe, parasite or virus in culture; format: cell-based, Staphylococcus aureus; details: Staphylococcus aureus, CVCC546
Protocol: as §1

S. aureus ATCC 25923 = assay: microbe, parasite or virus in culture; format: cell-based, Staphylococcus aureus; details: Staphylococcus aureus, ATCC25923
Protocol: as §1

[15] = 50 mM Mg2+, 37 °C, 1 h, MIC vs S. aureus ATCC 43300, triplicate
[16] = 100 mM Mg2+, 37 °C, 1 h, MIC vs S. aureus ATCC 43300, triplicate
[17] = 100 mM Na+, 37 °C, 1 h, MIC vs S. aureus ATCC 43300, triplicate
[18] = 150 mM Mg2+, 37 °C, 1 h, MIC vs S. aureus ATCC 43300, triplicate
[19] = 150 mM Na+, 37 °C, 1 h, MIC vs S. aureus ATCC 43300, triplicate
[20] = 300 mM Mg2+, 37 °C, 1 h, MIC vs S. aureus ATCC 43300, triplicate
[21] = 300 mM Na+, 37 °C, 1 h, MIC vs S. aureus ATCC 43300, triplicate
[22] = 500 mM Mg2+, 37 °C, 1 h, MIC vs S. aureus ATCC 43300, triplicate
[23] = 500 mM Na+, 37 °C, 1 h, MIC vs S. aureus ATCC 43300, triplicate

CN[C@H](CC(C)C)C(=O)N[C@H]1C(=O)N[C@@H](CC(N)=O)C(=O)N[C@H]2C(=O)N[C@H]3C(=O)N[C@H](C(=O)N[C@H](C(=O)O)c4cc(O)cc(O)c4-c4cc3ccc4O)[C@H](O)c3ccc(c(Cl)c3)Oc3cc2cc(c3O[C@@H]2O[C@H](CO)[C@@H](O)[C@H](O)[C@H]2O[C@H]2C[C@](C)(N)[C@H](O)[C@H](C)O2)Oc2ccc(cc2Cl)[C@H]1O [Vancomycin, vancomycin]
MIC (S. aureus ATCC 43300 [1]; Staphylococcus aureus, ATCC43300, 16 h, read-out: MICa (MIC of drug alone)): 1 µg/mL
Combination effect with FNZ (in words) (S. aureus ATCC 43300 [1]; checkerboard, S. aureus ATCC 43300): synergistic effect
FIC (S. aureus ATCC 43300 [1]; combination FNZ + Van, S. aureus ATCC 43300): 0.125
MICc (MIC of drug used in combination) (S. aureus ATCC 43300 [1]; combination FNZ + Van, S. aureus ATCC 43300, checkerboard, 37 °C, 16 h): 0.125 µg/mL
FICI (fractional inhibitory concentration index) (S. aureus ATCC 43300 [1]; combination of FNZ with the named antibiotic, S. aureus ATCC 43300, ≤0.5 synergy, 0.5-1 additivity, 1-4 indifference, >4 antagonism): 0.25 and < 0.5
MIC [2]: 1 µg/mL and 0.67 µM
MIC after treatment (S. aureus ATCC 43300 [3]; 20 °C for 1 h): 1 μg/mL and 0.67 μM
MIC after treatment (S. aureus ATCC 43300 [3]; 40 °C for 1 h): 1 μg/mL and 0.67 μM
MIC after treatment (S. aureus ATCC 43300 [3]; 60 °C for 1 h): 1 μg/mL and 0.67 μM
MIC after treatment (S. aureus ATCC 43300 [3]; 80 °C for 1 h): 1 μg/mL and 0.67 μM
MIC after treatment (S. aureus ATCC 43300 [3]; 100 °C for 1 h): 1 μg/mL and 0.67 μM
PAE (S. aureus ATCC 43300 [4]): 1.3 h
MIC after treatment (S. aureus ATCC 43300 [5]): 1 μg/mL and 0.67 μM
MIC after treatment (S. aureus ATCC 43300 [6]; pH 2): 1 μg/mL and 0.67 μM
MIC after treatment (S. aureus ATCC 43300 [6]; pH 4): 1 μg/mL and 0.67 μM
MIC after treatment (S. aureus ATCC 43300 [6]; pH 6): 1 μg/mL and 0.67 μM
MIC after treatment (S. aureus ATCC 43300 [6]; pH 8): 1 μg/mL and 0.67 μM
MIC after treatment (S. aureus ATCC 43300 [6]; pH 10): 1 μg/mL and 0.67 μM
MIC [7]: > 128 µg/mL and > 86 µM
MIC [8]: > 128 µg/mL and > 86 µM
MIC [9]: 1 µg/mL and 0.67 µM
MIC [10]: 128 µg/mL and 86 µM
MIC after treatment (S. aureus ATCC 43300 [11]): 1 μg/mL and 0.67 μM
MIC after treatment (S. aureus ATCC 43300 [12]): 1 μg/mL and 0.67 μM
MIC after treatment (S. aureus ATCC 43300 [13]; [15]): 1 µg/mL
MIC (S. aureus ATCC 43300 [13]; [15]): 0.67 µM
MIC after treatment (S. aureus ATCC 43300 [13]; [16]): 1 µg/mL
MIC (S. aureus ATCC 43300 [13]; [16]): 0.67 µM
MIC after treatment (S. aureus ATCC 43300 [13]; [17]): 1 µg/mL
MIC (S. aureus ATCC 43300 [13]; [17]): 0.67 µM
MIC after treatment (S. aureus ATCC 43300 [13]; [18]): 1 µg/mL
MIC (S. aureus ATCC 43300 [13]; [18]): 0.67 µM
MIC after treatment (S. aureus ATCC 43300 [13]; [19]): 1 µg/mL
MIC (S. aureus ATCC 43300 [13]; [19]): 0.67 µM
MIC after treatment (S. aureus ATCC 43300 [13]; [20]): 1 µg/mL
MIC (S. aureus ATCC 43300 [13]; [20]): 0.67 µM
MIC after treatment (S. aureus ATCC 43300 [13]; [21]): 1 µg/mL
MIC (S. aureus ATCC 43300 [13]; [21]): 0.67 µM
MIC after treatment (S. aureus ATCC 43300 [13]; [22]): 1 µg/mL
MIC (S. aureus ATCC 43300 [13]; [22]): 0.67 µM
MIC after treatment (S. aureus ATCC 43300 [13]; [23]): 1 µg/mL
MIC (S. aureus ATCC 43300 [13]; [23]): 0.67 µM
MIC (S. aureus ATCC 43300 [13]; Staphylococcus aureus, ATCC43300, 1 h): 1 µg/mL and 0.67 µM
Decrease of bacterial counts (log10 CFU/mL) (S. aureus ATCC 43300 [14]): 0.216 log10 CFU/mL
MIC (S. aureus E48): 1 µg/mL and 0.67 µM
MIC (S. aureus CVCC 546): 1 µg/mL and 0.67 µM
MIC (S. aureus ATCC 25923): 4 µg/mL and 2.69 µM
